Assay results taken from PubChem BioAssay (NCI).
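Test compounds were applied to cells in 96-well plates for 48 hours at 5 doses. TGI is the concentration that stops growth completely.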

Key:
Test in all cases: growth of human tumour cells (NCI), 48 h
[1] = system: EKVX NSCLC
[2] = system: UACC-62 melanoma
[3] = system: IGROV1 ovarian
[4] = system: SF-268 CNS
[5] = system: SNB-78 CNS
[6] = system: RXF 393 renal
[7] = system: SK-MEL-2 melanoma
[8] = system: M14 melanoma
[9] = system: HL-60(TB) leukemia
[10] = system: HT29 colon
[11] = system: HCC-2998 colon
[12] = system: ACHN renal
[13] = system: NCI-H23 lung
[14] = system: MALME-3M melanoma
[15] = system: LXFL 529 NSCLC
[16] = system: OVCAR-8 ovarian
[17] = system: SN12C renal
[18] = system: SF-295 CNS
[19] = system: HOP-18 NSCLC
[20] = system: SF-539 CNS
[21] = system: CCRF-CEM leukemia
[22] = system: A549 NSCLC
[23] = system: NCI-H460 lung
[24] = system: SNB-19 CNS
[25] = system: LOX IMVI melanoma
[26] = system: HCT-15 colon
[27] = system: DLD-1 colon
[28] = system: U251 CNS
[29] = system: A498 renal
[30] = system: KM12 colon
[31] = system: SK-MEL-5 melanoma
[32] = system: 786-0 renal
[33] = system: SW-620 colon
[34] = system: HOP-92 NSCLC
[35] = system: XF 498 CNS
[36] = system: COLO 205 colon
[37] = system: OVCAR-4 ovarian
[38] = system: TK-10 renal
[39] = system: MOLT-4 leukemia
[40] = system: KM20L2 colon
[41] = system: M19-MEL melanoma
[42] = system: DMS 273 small cell lung
[43] = system: RPMI-8226 leukemia
[44] = system: UACC-257 melanoma
[45] = system: OVCAR-3 ovarian
[46] = system: CAKI-1 renal
[47] = system: K-562 leukemia
[48] = system: UO-31 renal
[49] = system: SNB-75 CNS
[50] = system: HCT-116 colon
[51] = system: HOP-62 NSCLC
[52] = system: OVCAR-5 ovarian
[53] = system: DMS 114 small cell lung
[54] = system: SK-OV-3 ovarian
[55] = system: NCI-H226 lung
[56] = system: SK-MEL-28 melanoma
[57] = system: NCI-H522 lung
[58] = system: SR leukemia

COC(=O)CC(=O)OC
TGI [1]: > 100 µM
TGI [2]: > 100 µM
TGI [3]: > 100 µM
TGI [4]: > 100 µM
TGI [5]: > 100 µM
TGI [6]: > 100 µM
TGI [7]: > 100 µM
TGI [8]: > 100 µM
TGI [9]: > 100 µM
TGI [10]: > 100 µM
TGI [11]: > 100 µM
TGI [12]: > 100 µM
TGI [13]: > 100 µM
TGI [14]: > 100 µM
TGI [15]: > 100 µM
TGI [16]: > 100 µM
TGI [17]: > 100 µM
TGI [18]: > 100 µM
TGI [19]: > 100 µM
TGI [20]: > 100 µM
TGI [21]: > 100 µM
TGI [22]: > 100 µM
TGI [23]: > 100 µM
TGI [24]: > 100 µM
TGI [25]: > 100 µM
TGI [26]: > 100 µM
TGI [27]: > 100 µM
TGI [28]: > 100 µM
TGI [29]: > 100 µM
TGI [30]: > 100 µM
TGI [31]: > 100 µM
TGI [32]: > 100 µM
TGI [33]: > 100 µM
TGI [34]: > 100 µM
TGI [35]: > 100 µM
TGI [36]: > 100 µM
TGI [37]: > 100 µM
TGI [38]: > 100 µM
TGI [39]: > 100 µM
TGI [40]: > 100 µM
TGI [41]: > 100 µM
TGI [42]: > 100 µM
TGI [43]: > 100 µM
TGI [44]: > 100 µM
TGI [45]: > 100 µM
TGI [46]: > 100 µM
TGI [47]: > 100 µM
TGI [48]: > 100 µM
TGI [49]: > 100 µM
TGI [50]: > 100 µM
TGI [51]: > 100 µM
TGI [52]: > 100 µM
TGI [53]: > 100 µM
TGI [54]: > 100 µM

CCCCCCCCCCCCCC(=S)N/C=C/OC
TGI [1]: 81.7 µM
TGI [2]: 71.3 µM
TGI [3]: > 100 µM
TGI [4]: > 100 µM
TGI [5]: > 100 µM
TGI [6]: 54.8 µM
TGI [7]: 73 µM
TGI [8]: > 100 µM
TGI [9]: 36.8 µM
TGI [10]: 50.1 µM
TGI [11]: 45.9 µM
TGI [12]: 96.4 µM
TGI [13]: 74 µM
TGI [14]: > 100 µM
TGI [15]: > 100 µM
TGI [16]: > 100 µM
TGI [17]: > 100 µM
TGI [18]: 85.4 µM
TGI [19]: > 100 µM
TGI [20]: > 100 µM
TGI [21]: 56.2 µM
TGI [22]: > 100 µM
TGI [23]: > 100 µM
TGI [24]: > 100 µM
TGI [25]: 46.8 µM
TGI [26]: 53.3 µM
TGI [27]: > 100 µM
TGI [28]: 53.1 µM
TGI [29]: 86.2 µM
TGI [30]: 81.9 µM
TGI [31]: 61.7 µM
TGI [55]: > 100 µM
TGI [32]: > 100 µM
TGI [33]: > 100 µM
TGI [34]: 74.5 µM
TGI [35]: 51.9 µM
TGI [36]: 71.4 µM
TGI [37]: > 100 µM
TGI [38]: > 100 µM
TGI [40]: > 100 µM
TGI [41]: 99.6 µM
TGI [43]: 51.5 µM
TGI [44]: 57 µM
TGI [56]: > 100 µM
TGI [45]: 56.1 µM
TGI [57]: 46.3 µM
TGI [48]: 95.6 µM
TGI [49]: > 100 µM
TGI [50]: > 100 µM
TGI [51]: > 100 µM
TGI [52]: > 100 µM
TGI [53]: 48.3 µM
TGI [54]: > 100 µM

N#CCCN(CCC#N)c1ccc(/C=C2\N=C(c3cc([N+](=O)[O-])ccc3Cl)N(S(=O)(=O)c3ccccc3)C2=O)cc1
TGI [1]: > 100 µM
TGI [2]: > 100 µM
TGI [3]: > 100 µM
TGI [4]: > 100 µM
TGI [5]: > 100 µM
TGI [6]: > 100 µM
TGI [7]: > 100 µM
TGI [11]: > 100 µM
TGI [12]: > 100 µM
TGI [13]: > 100 µM
TGI [14]: > 100 µM
TGI [15]: > 100 µM
TGI [16]: > 100 µM
TGI [17]: > 100 µM
TGI [18]: > 100 µM
TGI [19]: > 100 µM
TGI [20]: > 100 µM
TGI [21]: > 100 µM
TGI [22]: > 100 µM
TGI [24]: > 100 µM
TGI [25]: > 100 µM
TGI [26]: > 100 µM
TGI [27]: > 100 µM
TGI [28]: > 100 µM
TGI [58]: > 100 µM
TGI [30]: > 100 µM
TGI [31]: > 100 µM
TGI [55]: > 100 µM
TGI [33]: > 100 µM
TGI [34]: > 100 µM
TGI [35]: > 100 µM
TGI [36]: > 100 µM
TGI [37]: > 100 µM
TGI [38]: > 100 µM
TGI [39]: > 100 µM
TGI [40]: > 100 µM
TGI [41]: > 100 µM
TGI [42]: > 100 µM
TGI [43]: > 100 µM
TGI [56]: > 100 µM
TGI [45]: > 100 µM
TGI [46]: > 100 µM
TGI [57]: > 100 µM
TGI [47]: > 100 µM
TGI [48]: > 100 µM
TGI [50]: > 100 µM
TGI [51]: > 100 µM
TGI [52]: > 100 µM
TGI [53]: > 100 µM
TGI [54]: > 100 µM

CCN(CC)CCN1CCc2c([nH]c3ccccc23)C1c1cccnc1 (stereo unspecified)
TGI [1]: > 100 µM
TGI [2]: > 100 µM
TGI [3]: > 100 µM
TGI [4]: > 100 µM
TGI [5]: > 100 µM
TGI [8]: > 100 µM
TGI [9]: > 100 µM
TGI [10]: > 100 µM
TGI [11]: > 100 µM
TGI [12]: > 100 µM
TGI [13]: > 100 µM
TGI [15]: > 100 µM
TGI [16]: > 100 µM
TGI [17]: > 100 µM
TGI [18]: > 100 µM
TGI [19]: > 100 µM
TGI [20]: > 100 µM
TGI [21]: > 100 µM
TGI [22]: > 100 µM
TGI [23]: > 100 µM
TGI [24]: > 100 µM
TGI [25]: > 100 µM
TGI [26]: > 100 µM
TGI [27]: > 100 µM
TGI [28]: > 100 µM
TGI [58]: > 100 µM
TGI [29]: > 100 µM
TGI [30]: > 100 µM
TGI [31]: > 100 µM
TGI [32]: > 100 µM
TGI [33]: > 100 µM
TGI [34]: > 100 µM
TGI [35]: > 100 µM
TGI [37]: > 100 µM
TGI [38]: > 100 µM
TGI [39]: > 100 µM
TGI [40]: > 100 µM
TGI [41]: > 100 µM
TGI [42]: > 100 µM
TGI [43]: > 100 µM
TGI [44]: > 100 µM
TGI [56]: > 100 µM
TGI [45]: > 100 µM
TGI [46]: > 100 µM
TGI [57]: > 100 µM
TGI [47]: > 100 µM
TGI [48]: > 100 µM
TGI [49]: > 100 µM
TGI [50]: > 100 µM
TGI [51]: > 100 µM
TGI [52]: > 100 µM
TGI [53]: > 100 µM
TGI [54]: > 100 µM

Cc1cc(C)c(-n2c(-c3ccccc3)cs/c2=N\N=C2C=C(C(C)(C)C)C(=O)C(C(C)(C)C)=C2)c(C)c1
TGI [1]: > 100 µM
TGI [2]: > 100 µM
TGI [3]: > 100 µM
TGI [4]: > 100 µM
TGI [5]: > 100 µM
TGI [6]: > 100 µM
TGI [7]: > 100 µM
TGI [8]: > 100 µM
TGI [9]: > 100 µM
TGI [10]: > 100 µM
TGI [11]: > 100 µM
TGI [12]: > 100 µM
TGI [13]: > 100 µM
TGI [14]: > 100 µM
TGI [15]: > 100 µM
TGI [16]: > 100 µM
TGI [17]: > 100 µM
TGI [18]: > 100 µM
TGI [19]: > 100 µM
TGI [20]: > 100 µM
TGI [21]: > 100 µM
TGI [22]: > 100 µM
TGI [23]: > 100 µM
TGI [24]: > 100 µM
TGI [25]: > 100 µM
TGI [26]: > 100 µM
TGI [27]: > 100 µM
TGI [28]: > 100 µM
TGI [58]: > 100 µM
TGI [30]: > 100 µM
TGI [31]: > 100 µM
TGI [55]: > 100 µM
TGI [32]: > 100 µM
TGI [33]: > 100 µM
TGI [34]: > 100 µM
TGI [35]: > 100 µM
TGI [36]: > 100 µM
TGI [37]: > 100 µM
TGI [38]: > 100 µM
TGI [39]: > 100 µM
TGI [40]: > 100 µM
TGI [41]: > 100 µM
TGI [42]: > 100 µM
TGI [43]: > 100 µM
TGI [44]: > 100 µM
TGI [56]: > 100 µM
TGI [45]: > 100 µM
TGI [46]: > 100 µM
TGI [57]: > 100 µM
TGI [47]: > 100 µM
TGI [49]: 94.6 µM
TGI [50]: > 100 µM
TGI [51]: > 100 µM
TGI [52]: > 100 µM
TGI [53]: > 100 µM
TGI [54]: > 100 µM
